# Experimental data as given in patent US7728014B2, “Heteroaromatic compounds having sphingosine-1-phosphate (S1P) receptor agonist biological activity” (Allergan, Inc., priority 2006, dated 2010).
# How the values were obtained:
# human S1P3 receptor = molecular target: T1, human S1P3 receptor (Homo sapiens, UniProt Q99500); assay: FLIPR Ca+2 response assay, activation of human S1P3 receptor in T24 cells; type: cell-based; conditions: for EC50: T24 cells stably expressing human S1P3, tested 0.61 nM to 10,000 nM; for Emax at 10 µM: T-24, receptor activity at highest dose (10 μM) relative to that induced by 5 nM sphingosine-1-phosphate, read-out: S1P3 (% efficacy)
# T1 construct: expressed in transfected cells
# T1 sequence (Q99500 whole entry): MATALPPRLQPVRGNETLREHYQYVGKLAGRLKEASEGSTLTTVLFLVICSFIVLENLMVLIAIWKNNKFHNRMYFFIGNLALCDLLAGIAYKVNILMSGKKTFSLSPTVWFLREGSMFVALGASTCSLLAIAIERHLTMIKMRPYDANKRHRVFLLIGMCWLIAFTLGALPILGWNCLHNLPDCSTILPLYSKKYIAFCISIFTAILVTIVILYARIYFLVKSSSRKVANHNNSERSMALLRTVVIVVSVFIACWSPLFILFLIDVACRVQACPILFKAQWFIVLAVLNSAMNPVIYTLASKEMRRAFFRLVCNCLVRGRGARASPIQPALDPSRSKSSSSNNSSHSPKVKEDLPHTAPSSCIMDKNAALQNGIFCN
# Experimental: Compounds were also assessed for their ability to activate or block activation of the human S1P3 receptor in T24 cells stably expressing the human S1P3 receptor. Ten thousand cells/well were plated into 384-well poly-D-lysine coated plates one day prior to use. The growth media for the S1P3 receptor expressing cell line was McCoy's 5A medium supplemented with 10% charcoal-treated fetal bovine serum (FBS), 1% antibiotic-antimycotic and 400 μg/ml geneticin. On the day of the experiment, the cells were washed twice with Hank's Balanced Salt Solution supplemented with 20 mM HEPES (HBSS/Hepes buffer). The cells were then dye loaded with 2 uM Fluo-4 diluted in the HBSS/Hepes buffer with 1.25 mM Probenecid and incubated at 37° C. for 40 minutes. Extracellular dye was removed by washing the cell plates four times prior to placing the plates in the FLIPR (Fluorometric Imaging Plate Reader, Molecular Devices). Ligands were diluted in HBSS/Hepes buffer and prepared in 384-well microplates. The positive control, Sphingosine-1-Phosphate (S1P), was diluted in HBSS/Hepes buffer with 4 mg/ml fatty acid free bovine serum albumin. The FLIPR transferred 12.5 μl from the ligand microplate to the cell plate and took fluorescent measurements for 75 seconds, taking readings every second, and then for 2.5 minutes, taking readings every 10 seconds. Drugs were tested over the concentration range of 0.61 nM to 10,000 nM. Data for Ca^+2 responses were obtained in arbitrary fluorescence units and not translated into Ca^+2 concentrations. IC50 values were determined through a […] regression analysis using the Levenburg Marquardt algorithm. In Table 1, NA is defined as “Not Active,” ND is defined as “Not Determined,” % efficacy is defined as “percent of receptor activity induced by a test compound at the highest dose test (10 μM) relative to the receptor activity induced by 5 nM sphingosine-1-phosphate,” and % inhibition is defined as “percent of receptor activity induced by 5 nM sphingosine-1-phosphate that is inhibited by a test compound at the highest dose tested (10 μM).”
# perfused porcine eyes = conditions: IOVS 45, 2263, 2004; cited from earlier work
EC50 (human S1P3 receptor; NA = Not Active) [nM],Emax at 10 µM (human S1P3 receptor) [%],EC50 (human S1P3 receptor) [nM],Structure (SMILES),decrease of outflow facility (perfused porcine eyes) [%]
1600,57,,"CCOC(=O)c1nnc(-c2ccc(CC)cc2)c(-c2ccccc2)n1 [Example 13, Ethyl 6-(4-Ethylphenyl)-5-phenyl-1,2,4-triazine-3-carboxylate]",
2900,,,"CCOC(=O)c1nnc(-c2ccc(C)cc2)c(-c2ccccc2)n1 [Example 17, Ethyl 5-Phenyl-6-p-tolyl-1,2,4-triazine-3-carboxylate]",
,34,,"CCOC(=O)c1nnc(-c2ccccc2)c(-c2ccc(C(F)(F)F)cc2)n1 [Example 19, Ethyl 5-(4-Trifluoromethylphenyl)-6-phenyl-1,2,4-triazine-3-carboxylatate]",
1800,80,,"CCOC(=O)c1ccc(-c2ccccc2)c(-c2ccccc2)n1 [Example 21, Ethyl 5,6-diphenylpyridine-2-carboxylate]",
740,32,,"CCOC(=O)c1ccc(-c2ccc(C)cc2)c(-c2ccccc2)n1 [Example 22, Ethyl 6-Phenyl-5-p-tolyl-pyridine-2-carboxylate]",
1400,82,,"CCOC(=O)c1ccc(-c2ccc(CC)cc2)c(-c2ccccc2)n1 [Example 23, Ethyl 5-(4-Ethyl-phenyl)-6-phenyl-pyridine-2-carboxylate]",
3100,50,,"CCCc1ccc(-c2ccc(C(=O)OCC)nc2-c2ccccc2)cc1 [Example 24, Ethyl 6-Phenyl-5-(4-propylphenyl)-pyridine-2-carboxylate]",
3700,46,,"CCOC(=O)c1ccc(-c2ccccc2)c(-c2ccc(C)cc2)n1 [Example 27, Ethyl 5-Phenyl-6-p-tolyl-pyridine-2-carboxylate]",
2900,48,,"CCOC(=O)c1ccc(-c2ccccc2)c(-c2ccc(CC)cc2)n1 [Example 28, Ethyl 6-(4-Ethylphenyl)-5-phenyl-pyridine-2-carboxylate]",
700,84,,"COC(=O)c1ccc(-c2ccccc2)c(-c2ccccc2)n1 [Example 30, Methyl 5,6-diphenylpyridine-2-carboxylate]",
580,73,,"COC(=O)c1ccc(-c2ccc(C)cc2)c(-c2ccccc2)n1 [Example 31, Methyl 6-Phenyl-5-p-tolyl-pyridine-2-carboxylate]",
570,88,,"CCc1ccc(-c2ccc(C(=O)OC)nc2-c2ccccc2)cc1 [Example 32, Methyl 5-(4-Ethylphenyl)-6-phenyl-pyridine-2-carboxylate]",
2900,81,,"CCCc1ccc(-c2ccc(C(=O)OC)nc2-c2ccccc2)cc1 [Example 33, Methyl 6-Phenyl-5-(4-propylphenyl)-pyridine-2-carboxylate]",
2300,91,,"COC(=O)c1ccc(-c2ccccc2)c(-c2ccc(C(F)(F)F)cc2)n1 [Example 35, Methyl 5-Phenyl-6-(4-trifluoromethylphenyl)-pyridine-2-carboxylate]",
,90,340,"CCc1ccc(-c2ccc(C(=O)OC)nc2-c2ccncc2)cc1 [Example 52, Methyl 5-(4-Ethylphenyl)-6-(pyridin-4-yl)pyridine-2-carboxylate]",
> 10000,51,,"CC(=O)c1ccc(-c2ccccc2)c(-c2ccccc2)n1 [Example 75, 1-(5,6-Diphenyl-pyridin-2-yl)-ethanone]",
3400,41,,"CCC(=O)c1ccc(-c2ccccc2)c(-c2ccccc2)n1 [Example 76, 1-(5,6-Diphenyl-pyridin-2-yl)-propan-1-one]",
2600,30,,"CCC(=O)c1ccc(-c2ccccc2)c(-c2ccc(C(F)(F)F)cc2)n1 [Example 79, 1-[5-Phenyl-6-(4-trifluoromethyl-phenyl)-pyridin-2-yl]-propan-1-one]",
2300,64,,"CCc1ccc(-c2nnc(C(=O)OC)nc2-c2ccccc2)cc1 [Example 89, Methyl 6-(4-Ethyl-phenyl)-5-phenyl-1,2,4-triazine-3-carboxylate]",
2400,59,,"COCc1ccc(-c2ccccc2)c(-c2ccccc2)n1 [Example 92, 6-Methoxymethyl-2,3-diphenyl-pyridine]",
4100,62,,"COC(=O)c1cnc(-c2ccccc2)c(-c2ccccc2)n1 [Example 93, Methyl 5,6-Diphenyl-pyrazine-2-carboxylate]",
2300,61,,"CC(=O)c1cnc(-c2ccccc2)c(-c2ccccc2)n1 [Example 94, 1-(5,6-Diphenyl-pyrazin-2-yl)-ethanone]",
4400,95,,"CCC(=O)c1cnc(-c2ccccc2)c(-c2ccccc2)n1 [Example 95, 1-(5,6-Diphenyl-pyrazin-2-yl)-propan-1-one]",
,,,"CCCCCCCCCCCCC/C=C/[C@@H](O)[C@@H](N)COP(=O)(O)O [Example S1P, Sphingosine-1-Phosphate]",> 30
